This passage reports IC50 results from BindingDB's records for doi:10.1016/j.bmcl.2005.03.034 (Glaxosmithkline, 2005).

This assay addresses Vascular endothelial growth factor receptor 2 (Homo sapiens, UniProt P35968). Nature of the assay: Homogeneous Time-resolved Fluorescence (HTRF) Assay. An excerpt:
The assay was using baculovirus-expressed recombinant protein kinase purified as the intracellular domain fused by GST tag, interacting with biotinylated peptide substrate. HTRF is based on the proximity of europium cryptate (donor fluorophore)-labeled antiphosphotyrosine and streptavidin labeled with APC(allophycocyanin), which have been brought together by a binding reaction. When the two entities come into close proximity and upon excitation, energy transfer occurs and APC re-emits at 665 nm.

Each structure is given as a SMILES string.

As a reminder, the IC50 is the concentration that gives 50% inhibition. A low value points to inhibition by little substance.

Chain of Vascular endothelial growth factor receptor 2 (P35968 whole entry, the tested form may be a part): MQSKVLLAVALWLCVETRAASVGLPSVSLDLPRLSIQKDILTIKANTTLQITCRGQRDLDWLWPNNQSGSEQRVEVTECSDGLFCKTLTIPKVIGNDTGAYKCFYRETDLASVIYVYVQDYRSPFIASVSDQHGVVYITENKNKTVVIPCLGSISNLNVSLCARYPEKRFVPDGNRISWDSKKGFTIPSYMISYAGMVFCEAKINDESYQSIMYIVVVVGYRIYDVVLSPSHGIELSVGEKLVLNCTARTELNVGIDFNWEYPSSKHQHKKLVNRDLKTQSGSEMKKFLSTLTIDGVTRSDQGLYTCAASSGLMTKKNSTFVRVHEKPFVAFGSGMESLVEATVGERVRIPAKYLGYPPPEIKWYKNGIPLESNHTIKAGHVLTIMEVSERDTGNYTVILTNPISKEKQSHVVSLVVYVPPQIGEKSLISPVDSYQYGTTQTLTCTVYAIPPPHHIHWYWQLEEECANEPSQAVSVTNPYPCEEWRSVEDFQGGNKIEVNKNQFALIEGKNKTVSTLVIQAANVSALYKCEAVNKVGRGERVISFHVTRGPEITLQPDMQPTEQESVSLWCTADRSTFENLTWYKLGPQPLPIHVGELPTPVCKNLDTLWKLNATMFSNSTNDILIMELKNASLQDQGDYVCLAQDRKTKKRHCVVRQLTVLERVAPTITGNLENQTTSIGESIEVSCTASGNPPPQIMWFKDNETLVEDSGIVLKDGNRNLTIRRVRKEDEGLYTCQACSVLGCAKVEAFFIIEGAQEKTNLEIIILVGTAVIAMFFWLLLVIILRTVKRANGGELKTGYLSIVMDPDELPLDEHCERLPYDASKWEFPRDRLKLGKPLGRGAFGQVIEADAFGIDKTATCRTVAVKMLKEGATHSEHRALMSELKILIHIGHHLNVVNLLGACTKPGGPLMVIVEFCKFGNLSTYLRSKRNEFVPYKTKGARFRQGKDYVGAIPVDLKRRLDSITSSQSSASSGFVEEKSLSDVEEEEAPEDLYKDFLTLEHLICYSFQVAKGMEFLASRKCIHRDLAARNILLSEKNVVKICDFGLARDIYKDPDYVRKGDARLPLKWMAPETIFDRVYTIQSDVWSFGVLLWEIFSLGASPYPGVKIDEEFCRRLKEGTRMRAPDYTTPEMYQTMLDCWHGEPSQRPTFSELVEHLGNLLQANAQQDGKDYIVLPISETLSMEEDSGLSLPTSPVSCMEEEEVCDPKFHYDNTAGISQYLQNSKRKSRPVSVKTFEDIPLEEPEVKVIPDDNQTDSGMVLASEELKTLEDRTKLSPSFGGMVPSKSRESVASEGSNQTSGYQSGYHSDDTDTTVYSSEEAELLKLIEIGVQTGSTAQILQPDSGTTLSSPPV

On to `CN(c1ccc(NC(=N)Nc2ccccc2)cc1)c1ccnc(Nc2cccc(CS(C)(=O)=O)c2)n1` [1-{4-[(2-{[3-(methanesulfonylmethyl)phenyl]amino}pyrimidin-4-yl)(methyl)amino]phenyl}benzeneguanidine], for which inhibition was half-maximal at 324 nM (IC50).
`CN(c1ccc(NC(=S)Nc2ccccc2)cc1)c1ccnc(Nc2cccc(CS(C)(=O)=O)c2)n1` [3-{4-[(2-{[3-(methanesulfonylmethyl)phenyl]amino}pyrimidin-4-yl)(methyl)amino]phenyl}-1-phenylthiourea]: the IC50 is 117 nM.
Compound `CN(c1ccc(NC(=O)Nc2ccccc2)cc1)c1ccnc(Nc2cccc(CS(C)(=O)=O)c2)n1` [3-{4-[(2-{[3-(methanesulfonylmethyl)phenyl]amino}pyrimidin-4-yl)(methyl)amino]phenyl}-1-phenylurea] came in with an IC50 of 18 nM.
In the case of `CN(c1ccc(NC(=O)Nc2ccccc2)cc1)c1ccnc(Nc2cccc(S(N)(=O)=O)c2)n1` [3-{4-[methyl({2-[(3-sulfamoylphenyl)amino]pyrimidin-4-yl})amino]phenyl}-1-phenylurea], the IC50 amounted to 5 nM.
Take `CN(c1ccc(NS(=O)(=O)Cc2ccccc2)cc1)c1ccnc(Nc2cccc(CS(C)(=O)=O)c2)n1` [N-{4-[(2-{[3-(methanesulfonylmethyl)phenyl]amino}pyrimidin-4-yl)(methyl)amino]phenyl}-1-phenylmethanesulfonamide]: half-maximal inhibition (IC50) was put at 269 nM.
`CN(c1ccc(NC(=O)Cc2ccccc2)cc1)c1ccnc(Nc2cccc(CS(C)(=O)=O)c2)n1` [N-{4-[(2-{[3-(methanesulfonylmethyl)phenyl]amino}pyrimidin-4-yl)(methyl)amino]phenyl}-2-phenylacetamide] came in with an IC50 of 176 nM.
Consider `CN(c1ccc(NC(=O)Oc2ccccc2)cc1)c1ccnc(Nc2cccc(CS(C)(=O)=O)c2)n1` [phenyl N-{4-[(2-{[3-(methanesulfonylmethyl)phenyl]amino}pyrimidin-4-yl)(methyl)amino]phenyl}carbamate], for which the IC50 stood at 95 nM.
